Measurements reported in paper PMC7160673, “A Degenerate Peptide Library Approach to Reveal Sequence Determinants of Methyllysine-Driven Protein Interactions” (Frontiers in Cell and Developmental Biology, 2020).
Where no end group is shown, it is not given here. Me2a = asymmetric dimethyl on Arg; Peg = not defined here

Assays:
Format in all cases: binding
53BP1 TTD = experiment: Histone peptide microarray, 53BP1 TTD; conditions: 53BP1 TTD hits, average signal per peptide
How it was run: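 Histone peptides were printed as microarrays and probed with protein or antibody in 25 mM HEPES pH 7.5, 100 mM NaCl, 0.5% BSA (w/v), 0.1% NP-40. Between steps, slides were washed 3 × 5 min in PBS with 0.1% Tween-20. Bound GST-tagged protein was detected with anti-GST (1:2,000), then AlexaFluor 647 secondary (1:5,000).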

[1] = tested on: Active Motif #39161, anti-H3K9me3; experiment: Histone peptide microarray, Active Motif 39161; conditions: Active Motif 39161 (anti-H3K9me3) hits
[2] = tested on: Abcam #ab8895, anti-H3K4me1; experiment: Histone peptide microarray, Abcam ab8895; conditions: Abcam ab8895 (anti-H3K4me1) hits, average signal per peptide
[3] = tested on: ABClonal #A2355, anti-H3K4me1; experiment: Histone peptide microarray, ABclonal A2355; conditions: Abclonal A2355 (anti-H3K4me1) hits
Experimental: (§1) Peptide microarrays were fabricated using an Aushon 2470 microarrayer and used as described ([Cornett et al., 2017]) with the following modifications. Protein and antibody hybridization steps were performed in buffer containing 25 mM HEPES pH 7.5, 100 mM NaCl, 0.5% BSA (w/v), and 0.1% NP-40. Slides were washed 3 × 5 min in PBS supplemented with 0.1% Tween-20 between each hybridization step. Antibodies used were primary anti-GST (Sigma #7781, 1:2,000 dilution) and an AlexaFluor 647-labeled secondary antibody (Life Technologies A-21245, 1:5,000 dilution). […] Full lists of peptides queried by array analysis are in Supplementary Table S2.

[4] = tested on: Millipore #07-449, anti-H3K27me3; experiment: Histone peptide microarray, Millipore 07-449; conditions: Millipore 07-449 (anti-H3K27me3) hits, average signal per peptide
CST 9733 (anti-H3K27me3) = experiment: Histone peptide microarray, CST 9733; conditions: histone peptide array signal normalized to the highest peptide average per subarray, hits; CST 9733 LOT:14 dilution 1:5,000
Experimental: as §1

Substance | Avg Signal (53BP1 TTD) | Avg Signal [1] | Avg Signal [2] | Avg Signal [3] | Avg Signal [4] | Avg Signal (CST 9733 (anti-H3K27me3))
AR(Me2a)TK(Me2)QTARKSTGGKAPRKQL-K(Biot)-NH2 [H3.1R2me2aK4me2] | 0.2614 | 0.0008405 | 0.2655 | 0.325 | 0.008316 | –
AR(Me)TK(Me3)QTARK(Ac)STGGK(Ac)APRK(Ac)QL-K(Biot)-NH2 [H3.1R2me1K4me3K9acK14acK18ac] | 0.04917 | 0.006911 | 0.01244 | – | 0.05381 | 0.009005
ARTKQTARK(Me2)STGGKAPRKQLATKAARK(Me)SAPAT-Peg-Biot [H3.1K9me2K27me1] | – | 0.02404 | 0.3474 | 0.05183 | 0.004141 | –
ARTK(Me2)QTARK(Ac)STGGK(Ac)APRK(Ac)QL-K(Biot)-NH2 [H3.1K4me2K9acK14acK18ac] | 0.5398 | – | 0.4999 | 0.4093 | 0.02042 | –
H3.1.1(1-32) | – | – | 0.3398 | 0.04529 | 0.003069 | –
ARTK(Me2)QTARKSTGGKAPRKQL-K(Biot)-NH2 [Peptide H3.1K4me2] | 0.3009 | 0.001961 | 0.3093 | 0.3078 | – | –
ARTK(Me)QTARKSTGGKAPRKQL-K(Biot)-NH2 [Peptide H3.1K4me1] | 0.08871 | – | 0.89 | 0.7621 | – | –
Ac-SGRGK(Ac)GGKGLGKGGAKRHRK(Ac)VLR-Peg-Biot [Peptide H4K5acK20ac] | – | 0.0005946 | – | 0.0007556 | – | –
ARTK(Ac)QTARKSTGGK(Ac)APRK(Ac)QL-K(Biot)-NH2 [H3.1K4acK14acK18ac] | 0.1071 | – | 0.001503 | 0.005007 | 0.004978 | –
Ac-IAQDFK(Me2)TDLRF-Peg-K(Biot)-NH2 [Peptide H3.1K79me2] | 0.2119 | – | – | 0.0001532 | 0.002961 | –
Ac-SGRGK(Ac)QGGKARAKAKTR-Peg-Biot [Peptide H2AK5ac] | 0.06555 | – | 0.04469 | 0.0257 | – | –
AR(Me2a)TKQTARKSTGGKAPRKQL-K(Biot)-NH2 [Peptide H3.1R2me2a] | 0.05357 | 0.00368 | 0.1119 | 0.0139 | 0.004979 | –
Biot-Peg-GKKATQApSQEY-OH [Peptide H2A.XS139p] | – | – | 0.05956 | 0.02695 | 0.0003137 | –
Ac-SGRGKGGKGLGKGGAK(Ac)RHRKVLR-Peg-Biot [Peptide H4K16ac] | 0.07097 | – | 0.0007834 | 0.00197 | 0.001899 | –
Ac-SGRGKGGK(Me)GLGKGGAKRHRKVLR-Peg-Biot [Peptide H4K8me1] | – | 0.0007159 | 0.01379 | 0.02626 | – | –
Ac-APRKQLATK(Me)AARKSAPATGG-Peg-K(Biot)-NH2 [Peptide H3.1K23me1] | – | 0.004448 | 0.124 | 0.3577 | 0.003618 | –
ATKAARKSAPATGGVK(Ac)KPHRYRPG-GK(Biotin)-OH [Peptide H3.1K36ac] | – | 0.009457 | – | 0.001664 | 0.004604 | –
AR(Me2a)pTK(Me3)QTARKSTGGKAPRKQL-K(Biot)-NH2 [H3.1R2me2aT3pK4me3] | 0.03111 | – | 0.001405 | 0.002084 | 0.007597 | –
ARTK(Me2)QTARK(Ac)STGGKAPRK(Ac)QL-K(Biot)-NH2 [H3.1K4me2K9acK18ac] | 0.5101 | 0.009454 | 0.4062 | 0.4042 | – | –
Ac-SGRGK(Ac)QGGK(Ac)ARAK(Ac)AK(Ac)TR-Peg-Biot [H2AK5acK9acK13acK15ac] | 0.0113 | 0.005245 | – | 0.0056 | 0.001671 | –

Substance | Avg Signal (53BP1 TTD) | Avg Signal [1] | Avg Signal [2] | Avg Signal [3] | Avg Signal [4] | Avg Signal (CST 9733 (anti-H3K27me3))
Ac-APRKQLATKAARK(Me2)pSAPSTGG-Peg-Biot [H3.3K27me2S28p] | – | 0.009021 | – | 0.002617 | 0.003767 | 0.004223
Ac-SGRGK(Ac)GGK(Me)GLGK(Ac)GGAKRHRKVLR-Peg-Biot [H4K5acK8me1K12ac] | – | 0.01545 | 0.003463 | 0.01786 | 0.005126 | –
AR(Me2a)TK(Me3)QTARKpSTGGKAPRKQL-K(Biot)-NH2 [H3.1R2me2aK4me3S10p] | 0.1482 | 0.007954 | 0.0003692 | – | 0.02048 | 0.01157
ATKAARKSAPATGGVK(Me)KPHRYRPG-GK(Biotin)-OH [Peptide H3.1K36me1] | – | 0.001641 | 0.0206 | 0.006039 | 0.002073 | –
ATKAARKSAPATGGVK(Me2)KPHRYRPG-GK(Biotin)-OH [Peptide H3.1K36me2] | – | 0.01273 | 0.1144 | 0.06205 | 0.005826 | –
AR(Me2a)pTK(Me3)QTARK(Ac)STGGK(Ac)APRK(Ac)QL-K(Biot)-NH2 [H3.1R2me2aT3pK4me3K9acK14acK18ac] | 0.09934 | 0.0001961 | 0.003812 | – | 0.005728 | 0.0005148
Ac-SGRGK(Ac)GGKGLGK(Ac)GGAKRHRKVLR-Peg-Biot [Peptide H4K5acK12ac] | 0.08013 | 0.02456 | 0.0343 | 0.01286 | 0.01271 | –
Ac-SGRGK(Me)GGKGLGKGGAKRHRKVLR-Peg-Biot [Peptide H4K5me1] | – | 0.04055 | 0.01832 | 0.006523 | 0.002242 | –
ARTK(Me)QTARK(Ac)STGGKAPRK(Ac)QL-K(Biot)-NH2 [H3.1K4me1K9acK18ac] | 0.06582 | 0.0008903 | 0.7729 | 0.6625 | – | –
Ac-APRK(Ac)QLATK(Ac)AARK(Ac)pSAPSTGG-Peg-Biot [H3.3K18acK23acK27acS28p] | – | 0.004946 | – | 0.0001631 | 0.0009622 | –
ARTK(Ac)QTARKSTGGKAPRK(Ac)QL-K(Biot)-NH2 [H3.1K4acK18ac] | 0.07704 | 0.0001961 | 0.002862 | 0.001249 | – | –
ARTKQTARK(Ac)STGGK(Ac)APRK(Ac)QL-K(Biot)-NH2 [H3.1K9acK14acK18ac] | 0.1031 | 0.001438 | 0.2691 | 0.01044 | – | –
Ac-APRK(Me3)QLATKAARKSAPSTGGVK(Me3)KPHRY-GG-K(Biot)-NH2 [H3.3K18me3K36me3] | 0.1772 | 0.4275 | 0.006536 | – | 0.2482 | 0.04154
ARTK(N3)QTARKSTGGKAPRKQL-K(Biot)-NH2 [Peptide H3.1K4N3] | 0.07618 | – | 0.03034 | 0.03523 | – | –
ARTK(Me)QTARK(Ac)STGGK(Ac)APRK(Ac)QL-K(Biot)-NH2 [H3.1K4me1K9acK14acK18ac] | 0.194 | 0.005174 | 0.9702 | 0.8066 | – | –
Ac-IAQDFK(Me3)TDLRF-Peg-K(Biot)-NH2 [Peptide H3.1K79me3] | 0.03452 | – | 0.06064 | 0.03778 | – | –
PEPAKSAPAPKK(Ac)GSK(Ac)K(Ac)AVTK(Ac)AQKK-Peg-Biot [H2BK12acK15acK16acK20ac] | – | 0.009853 | – | 0.0003507 | – | –
ARTKQTAR(Me2a)KSTGGKAPRKQL-Peg-Biot (chain 2 KSTGGKAPRKQL-{Peg-Biot}; not fully specified; reading uncertain) [Peptide H3.1R8me2a] | – | 0.01209 | 0.06138 | 0.000963 | – | –
ARTK(Me3)QTARKSTGGK(Ac)APRKQL-K(Biot)-NH2 [H3.1K4me3K14ac] | 0.1175 | 0.009793 | 0.0003256 | – | 0.02658 | 0.004624
AR(Me)TK(Me3)QTARKSTGGKAPRKQL-K(Biot)-NH2 [H3.1R2me1K4me3] | 0.08379 | – | 0.01284 | – | 0.07195 | 0.002343
